Assay results: US20250154144A1 (CHILDREN'S HOSPITAL MEDICAL CENTER, priority 2021, published 2025)
Like-named read-outs stand apart in the source and are kept apart here.

Tests used:
[1] = test system: MOLM14(D835Y) cells; assay type: cell-based
[2] = test system: THP1 cells; test: Combination drug screening, Cell Titer Glo, 10 × 10 matrix, THP1 cells; assay type: cell-based
[3] = starting conc. 100 nM, with (+)-BAY-1251152 starting conc. 1000 nM
[4] = starting conc. 100 nM, with Azacitidine (5-Azacytidine) starting conc. 20000 nM
[5] = starting conc. 100 nM, with Palbociclib starting conc. 10000 nM
[6] = starting conc. 100 nM, with Prednisolone starting conc. 10000 nM
[7] = starting conc. 100 nM, with TNO-155 starting conc. 10000 nM
[8] = starting conc. 100 nM, with Venetoclax (ABT-199) starting conc. 2000 nM
[9] = starting conc. 100 nM, with Venetoclax (ABT-199) starting conc. 20000 nM
[10] = starting conc. 20000 nM, with (+)-BAY-1251152 starting conc. 1000 nM
[11] = starting conc. 20000 nM, with Azacitidine (5-Azacytidine) starting conc. 20000 nM
[12] = starting conc. 20000 nM, with Palbociclib starting conc. 10000 nM
[13] = starting conc. 20000 nM, with Prednisolone starting conc. 10000 nM
[14] = starting conc. 20000 nM, with TNO-155 starting conc. 10000 nM
[15] = starting conc. 20000 nM, with Venetoclax (ABT-199) starting conc. 2000 nM
[16] = starting conc. 20000 nM, with Venetoclax (ABT-199) starting conc. 20000 nM

`COc1cc2ncc(-c3ccnc(N[C@@H]4CCCNC4)n3)n2nc1C1CC1` [Compound 50, (R)-4-(6-cyclopropyl-7-methoxyimidazo[1,2-b]pyridazin-3-yl)-N-(piperidin-3-yl)pyrimidin-2-amine] was tested, and the “Excess HSA Score” value ([1]; MOLM14(D835Y) cells, 10 × 10, combination with (+)-BAY-1251152) was −552.5, the “Excess HSA Score” value ([1]; MOLM14(D835Y) cells, 10 × 10, combination with AMG-232) was −129.9 and the “Excess HSA Score” value ([1]; MOLM14(D835Y) cells, 10 × 10, combination with AZD-5363) was 12.5. The “Excess HSA Score” value ([1]; MOLM14(D835Y) cells, 10 × 10, combination with Eprenetapopt/APR-246) was −99.03, the “Excess HSA Score” value ([1]; MOLM14(D835Y) cells, 10 × 10, combination with Ivosidenib) was 219 and the “Excess HSA Score” value ([1]; MOLM14(D835Y) cells, 10 × 10, combination with Lenalidomide) was 555. For the same compound, the “Excess HSA Score” value ([1]; MOLM14(D835Y) cells, 10 × 10, combination with Palbociclib) was −528.5, the “Excess HSA Score” value ([1]; MOLM14(D835Y) cells, 10 × 10, combination with Prednisolone) was 196.6 and the “Excess HSA Score” value ([1]; MOLM14(D835Y) cells, 10 × 10, combination with SNDX-5613) was −229.3. The “Excess HSA Score” value ([1]; MOLM14(D835Y) cells, 10 × 10, combination with TNO-155) was −1021, the “Excess HSA Score” value ([1]; MOLM14(D835Y) cells, 10 × 10, combination with Trametinib) was −342.3 and the “Excess HSA Score” value ([1]; MOLM14(D835Y) cells, 10 × 10, combination with Ulixertinib) was 149.4. The “Excess HSA Score” value ([1]; MOLM14(D835Y) cells, 10 × 10, combination with Venetoclax (ABT-199)) was −1391, the Comments ([1]; MOLM14(D835Y) cells, combination with AZD-5363) was “Antagonistic” and the Comments ([1]; MOLM14(D835Y) cells, combination with Venetoclax (ABT-199)) was “Synergistic”. For the same compound, the Comments [1, 3] was “Synergistic”, the “Excess HSA Score” value [1, 3] was −317.9 and the “Excess HSA Score” value [1, 4] was −579.8. The “Excess HSA Score” value [1, 5] was −1019, the “Excess HSA Score” value [1, 6] was 9.258 and the Comments [1, 7] was “Synergistic”. The “Excess HSA Score” value [1, 7] was −1043.6684, the Comments [1, 8] was “Synergistic;” and the “Excess HSA Score” value [1, 8] was −1372. The Comments [1, 9] was “Synergistic;”, the “Excess HSA Score” value [1, 9] was −83.83 and the Comments [1, 10] was “Antagonistic”. For the same compound, the “Excess HSA Score” value [1, 10] was 67.99, the “Excess HSA Score” value [1, 11] was −56.9 and the “Excess HSA Score” value [1, 12] was −31.37. The “Excess HSA Score” value [1, 13] was 121.2, the Comments [1, 14] was “Additive” and the “Excess HSA Score” value [1, 14] was −2.487. The Comments [1, 15] was “Synergistic;”, the “Excess HSA Score” value [1, 15] was −1026 and the Comments [1, 16] was “Synergistic;”. For the same compound, the “Excess HSA Score” value [1, 16] was −74.01, the “Excess HSA Score” value ([2]; THP1 cells, 10 × 10, combination with (+)-BAY-1251152) was −396.5 and the “Excess HSA Score” value ([2]; THP1 cells, 10 × 10, combination with AMG-232) was 252. The “Excess HSA Score” value ([2]; THP1 cells, 10 × 10, combination with AZD-5363) was −475, the “Excess HSA Score” value ([2]; THP1 cells, 10 × 10, combination with Eprenetapopt/APR-246) was −218.2 and the “Excess HSA Score” value ([2]; THP1 cells, 10 × 10, combination with Ivosidenib) was −149.8. The “Excess HSA Score” value ([2]; THP1 cells, 10 × 10, combination with Lenalidomide) was 333.7, the “Excess HSA Score” value ([2]; THP1 cells, 10 × 10, combination with Palbociclib) was −273.2 and the “Excess HSA Score” value ([2]; THP1 cells, 10 × 10, combination with Prednisolone) was −429.3. For the same compound, the “Excess HSA Score” value ([2]; THP1 cells, 10 × 10, combination with SNDX-5613) was −9.013, the “Excess HSA Score” value ([2]; THP1 cells, 10 × 10, combination with TNO-155) was 306.2 and the “Excess HSA Score” value ([2]; THP1 cells, 10 × 10, combination with Trametinib) was −475.4. For the same compound, the “Excess HSA Score” value ([2]; THP1 cells, 10 × 10, combination with Ulixertinib) was −358.5769, the “Excess HSA Score” value ([2]; THP1 cells, 10 × 10, combination with Venetoclax (ABT-199)) was −2869 and the Comments ([2]; THP1 cells, combination with AMG-232) was “Antagonistic”. For the same compound, the Comments ([2]; THP1 cells, combination with Venetoclax (ABT-199)) was “Synergistic”, the Comments [2, 3] was “Synergistic at both” and the “Excess HSA Score” value [2, 3] was −408.4. For the same compound, the Comments [2, 4] was “Synergistic at both”, the “Excess HSA Score” value [2, 4] was −164.8 and the Comments [2, 5] was “Antagonistic over”. The “Excess HSA Score” value [2, 5] was 19.42, the Comments [2, 6] was “Antagonistic at both” and the “Excess HSA Score” value [2, 6] was 76.0598. For the same compound, the “Excess HSA Score” value [2, 7] was 0.06789, the Comments [2, 8] was “Synergistic; Optimal” and the “Excess HSA Score” value [2, 8] was −911.4. The Comments [2, 9] was “Synergistic; Optimal”, the “Excess HSA Score” value [2, 9] was −1400 and the Comments [2, 10] was “Synergistic at both”. The “Excess HSA Score” value [2, 10] was −293.4, the Comments [2, 11] was “Synergistic at both” and the “Excess HSA Score” value [2, 11] was −347.5. For the same compound, the “Excess HSA Score” value [2, 12] was −482.7, the Comments [2, 13] was “Antagonistic at both” and the “Excess HSA Score” value [2, 13] was 541.6925. The Comments [2, 14] was “Antagonistic”, the “Excess HSA Score” value [2, 14] was 230.5 and the Comments [2, 15] was “Synergistic; Optimal”. For the same compound, the “Excess HSA Score” value [2, 15] was −27.96, the Comments [2, 16] was “Synergistic; Optimal” and the “Excess HSA Score” value [2, 16] was −1808.
